How the values were obtained:
[1] = target: T1, TrkB (Rattus norvegicus, UniProt Q63604); assay: biochemical; assay type: binding
T1 construct: expressed in transfected cells; host or cells: HEK293T

[2] = tested on: dendritic arbor complexity of neuronal cultures; assay: Dendritogenesis (Sholl analysis) in neuronal cultures (WT and Y433F^+/−); assay type: cell-based, mouse
Experimental: In a separate set of experiments to study the effects of extracellular BDNF and 5-HT2A activation, cultures were also pretreated for 10 min with TrkB.FC (200 ng ml^−1) or M100907 (100 nM), respectively. Similar to treatment with the psychedelics, TrkB.FC and M100907 pretreatments were administered in cumulative doses and remained in the medium for the rest of the experiment. At DIV7, neurons were pre-incubated for 1 h with […] MgCl2 to prevent excitotoxicity, then neurons were transfected for the heterologous expression of mCherry. To minimize any possible interference of the transfection protocol upon the drug effect, transfection was done in the morning while treatment with psychedelics was always added in the evening. Twenty-four hours after transfection, neurons were fixed with 4% PFA for 20 min at room temperature, washed in PBS-T, blocked for 30 min with 3% BSA in PBS-T and incubated with chicken anti-MAP2 (Abcam, ab5392; 1:5,000, 1 h, room temperature). Then, coverslips were washed in PBS-T and incubated with Alexa Fluor 647-conjugated antibody goat anti-chicken (Invitrogen, A-21449; 1:1,000, 1 h, room temperature). Next, coverslips were washed in PBS-T and MilliQ water, and mounted in Dako fluorescence mounting medium (Agilent, S302380-2). Ten optical sections with a Z-step of 1.3 μm were acquired using a Zeiss LSM 710 confocal microscope with a LCI Plan/Neofluar 25×/0.8 lmm Korr DIC M27 objective. In the mCherry channel, the center of the soma was manually assigned and the number of dendritic intersections at fixed distances (every 5 μm) from the soma was automatically counted using the Sholl analysis plugin of ImageJ.

[3] = tested on: spine density of neuronal cultures; assay: Spinogenesis in mature neuronal cultures (WT and Y433F^+/−); assay type: cell-based, mouse; design: 6d: Mean (spinogenesis, spine density) / 6e: Mean (spinogenesis, spine density): unit not given here; conditions: for 6e: Mean (spinogenesis, spine density): Vehicle:Vehicle mean 7.05
Experimental: Spinogenesis experiments were performed similarly to previous studies[12],[13] with modifications. […] In a separate set of experiments to study the effects of extracellular BDNF and 5-HT2A activation, cultures were also pretreated for 10 min with TrkB.FC (200 ng ml^−1) or M100907 (100 nM), respectively. TrkB.FC and M100907 remained in the medium for the rest of the experiment. Twenty-four hours later, coverslips were fixed with 4% PFA, washed with PBS, incubated with blocking buffer (0.1% Triton X-100, 0.05% Tween-20, 10% normal donkey serum, 1% BSA and 0.1% gelatin in PBS) for 1 h at room temperature and then overnight with rabbit anti-MAP2 (Invitrogen, PA5-17646; 1:100) primary antibody at 4 °C. After washing with PBS, coverslips were incubated with CF568-conjugated donkey anti-rabbit (Biotium, 20098; 1:500) for 1 h at room temperature. Another round of PBS washes was followed by incubation with Alexa Fluor 647-conjugated phalloidin (Invitrogen, A22287; 1:40) overnight at 4 °C. Next, coverslips were briefly washed in phosphate buffer (PB) and mounted on slides with ProLong Glass Antifade Mountant (Invitrogen, P36982). We used a Zeiss LSM 880 confocal microscope with an AiryScan GaAsP detector equipped with a PlanApochromat 63×/1.4 NA objective. We used the BP 495–550 + LP 570 AiryScan filter and Zen Black in super-resolution mode for image acquisition. Pinhole size was adapted accordingly, and frame size was set to optimal. Sensors were set to continuous adjustment across the imaging sessions to ensure optimal sensor alignment and signal detection. Raw data were processed into AiryScan images with the autofilter mode on using Zen Blue. Finally, image analysis was performed in ImageJ by experimenters blinded for treatment and genotype. Spines were quantified in 15-µm-long dendrite sections.

[4] = Y433F+/-:vehicle minus Y433F+/-:treatment

T1 sequence (Q63604 32-821): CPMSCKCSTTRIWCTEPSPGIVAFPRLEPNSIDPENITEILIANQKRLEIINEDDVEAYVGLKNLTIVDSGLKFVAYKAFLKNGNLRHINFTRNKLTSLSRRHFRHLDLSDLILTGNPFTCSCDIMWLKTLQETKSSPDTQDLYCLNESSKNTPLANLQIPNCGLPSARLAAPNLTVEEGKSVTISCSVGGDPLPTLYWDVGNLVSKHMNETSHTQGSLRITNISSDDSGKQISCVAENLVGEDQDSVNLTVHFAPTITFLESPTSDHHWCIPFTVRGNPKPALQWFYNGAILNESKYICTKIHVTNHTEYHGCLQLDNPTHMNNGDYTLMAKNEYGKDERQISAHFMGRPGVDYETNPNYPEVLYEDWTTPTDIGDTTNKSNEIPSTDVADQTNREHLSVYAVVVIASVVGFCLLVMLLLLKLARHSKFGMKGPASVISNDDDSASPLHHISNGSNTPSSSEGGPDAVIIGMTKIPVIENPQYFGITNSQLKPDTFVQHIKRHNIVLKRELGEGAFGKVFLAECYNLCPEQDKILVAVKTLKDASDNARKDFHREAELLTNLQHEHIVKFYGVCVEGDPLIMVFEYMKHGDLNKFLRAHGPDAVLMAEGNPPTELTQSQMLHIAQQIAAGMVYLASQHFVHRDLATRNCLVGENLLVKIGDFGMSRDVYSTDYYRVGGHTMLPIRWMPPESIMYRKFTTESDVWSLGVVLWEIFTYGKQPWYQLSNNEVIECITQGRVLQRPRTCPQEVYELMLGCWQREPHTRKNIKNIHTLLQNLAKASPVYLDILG

With CCN(CC)C(=O)C1C=C2c3cccc4[nH]cc(c34)CC2N(C)C1 (stereo not shown) [LSD, lysergic acid diethylamide] the Ki [1] was 3.38 ± 1.39 nM, the “Bmax (best-fit, 1b)” value ([1]; competition with ^3H-LSD) was 104.9 and the “h (best-fit, 1b)” value ([1]; competition with ^3H-LSD) was -0.5005. For the same compound, the “6g: Mean (dendritogenesis, Sholl analysis)” value ([2]; WT neurons, vehicle mean 32.96) was 75.11, the “6g: Mean Diff. (vehicle vs. treatment), Bonferroni's multiple comparisons test” value ([2]; WT:vehicle minus WT:treatment) was -42.15 and the “6g: Mean (dendritogenesis, Sholl analysis)” value ([2]; Y433F+/- neurons, vehicle mean 44.44) was 47.24. The “6g: Mean Diff. (vehicle vs. treatment), Bonferroni's multiple comparisons test” value [2, 4] was -2.791, the dendritic arbor complexity ([2]; cultures from WT mice) was “enhance dendritic arbor complexity” and the dendritic arbor complexity ([2]; cultures from Y433F^+/− mice) was “not Y433F^+/− mice”. For the same compound, the “dendritic arbor complexity, Mean Diff. (Vehicle:vehicle vs. group)” value ([2]; fig 6i, Bonferroni's multiple comparisons test) was -41.23, the “dendritic arbor complexity, group mean (Mean 2)” value ([2]; fig 6i, treatment:pretreatment groups, Vehicle:vehicle mean 69.72) was 110.9 and the “Sholl analysis, Mean at distance from soma” value (“Sholl analysis, Mean” below) ([2]; fig 6j, distance from soma 10 µm) was 8.895. The “Sholl analysis, Mean” value ([2]; fig 6j, distance from soma 15 µm) was 10.2632, the “Sholl analysis, Mean” value ([2]; fig 6j, distance from soma 20 µm) was 10.421 and the “Sholl analysis, Mean” value ([2]; fig 6j, distance from soma 25 µm) was 9.211. For the same compound, the “Sholl analysis, Mean” value ([2]; fig 6j, distance from soma 30 µm) was 8.842, the “Sholl analysis, Mean” value ([2]; fig 6j, distance from soma 35 µm) was 8.316 and the “Sholl analysis, Mean” value ([2]; fig 6j, distance from soma 40 µm) was 6.789. The “Sholl analysis, Mean” value ([2]; fig 6j, distance from soma 45 µm) was 6.368, the “Sholl analysis, Mean” value ([2]; fig 6j, distance from soma 50 µm) was 6.368 and the “Sholl analysis, Mean” value ([2]; fig 6j, distance from soma 55 µm) was 4.737. The “Sholl analysis, Mean” value ([2]; fig 6j, distance from soma 60 µm) was 4.526, the “Sholl analysis, Mean” value ([2]; fig 6j, distance from soma 65 µm) was 3.895 and the “Sholl analysis, Mean” value ([2]; fig 6j, distance from soma 70 µm) was 3.526. The “Sholl analysis, Mean” value ([2]; fig 6j, distance from soma 75 µm) was 3.158, the “Sholl analysis, Mean” value ([2]; fig 6j, distance from soma 80 µm) was 3.158 and the “Sholl analysis, Mean” value ([2]; fig 6j, distance from soma 85 µm) was 3.316. The “Sholl analysis, Mean” value ([2]; fig 6j, distance from soma 90 µm) was 3.105, the “Sholl analysis, Mean” value ([2]; fig 6j, distance from soma 95 µm) was 3.211 and the “Sholl analysis, Mean” value ([2]; fig 6j, distance from soma 100 µm) was 2.842. The “Sholl analysis, Mean” value ([2]; fig 6h, distance from soma 25 µm) was 4.059, the “Sholl analysis, Mean” value ([2]; fig 6h, distance from soma 30 µm) was 3.529 and the “Sholl analysis, Mean” value ([2]; fig 6h, distance from soma 35 µm) was 3. The “Sholl analysis, Mean” value ([2]; fig 6h, distance from soma 40 µm) was 3.059, the “Sholl analysis, Mean” value ([2]; fig 6h, distance from soma 45 µm) was 2.412 and the “Sholl analysis, Mean” value ([2]; fig 6h, distance from soma 50 µm) was 2.471. For the same compound, the “Sholl analysis, Mean” value ([2]; fig 6h, distance from soma 55 µm) was 2.294, the “Sholl analysis, Mean” value ([2]; fig 6h, distance from soma 60 µm) was 1.882 and the “Sholl analysis, Mean” value ([2]; fig 6h, distance from soma 65 µm) was 1.765. For the same compound, the “Sholl analysis, Mean” value ([2]; fig 6h, distance from soma 70 µm) was 1.294, the “Sholl analysis, Mean” value ([2]; fig 6h, distance from soma 75 µm) was 1.353 and the “Sholl analysis, Mean” value ([2]; fig 6h, distance from soma 80 µm) was 1.353. For the same compound, the “Sholl analysis, Mean” value ([2]; fig 6h, distance from soma 85 µm) was 1, the “Sholl analysis, Mean” value ([2]; fig 6h, distance from soma 90 µm) was 1.059 and the “Sholl analysis, Mean” value ([2]; fig 6h, distance from soma 95 µm) was 1. The “Sholl analysis, Mean” value ([2]; fig 6h, distance from soma 100 µm) was 0.7059, the “6h: Mean (Sholl analysis)” value ([2]; first 6h table (N as WT), distance from soma 10 µm) was 6.789 and the “6h: Mean (Sholl analysis)” value ([2]; first 6h table (N as WT), distance from soma 15 µm) was 8.684. For the same compound, the “6h: Mean (Sholl analysis)” value ([2]; first 6h table (N as WT), distance from soma 20 µm) was 8.526, the “6h: Mean (Sholl analysis)” value ([2]; first 6h table (N as WT), distance from soma 25 µm) was 6.474 and the “6h: Mean (Sholl analysis)” value ([2]; first 6h table (N as WT), distance from soma 30 µm) was 6. For the same compound, the “6h: Mean (Sholl analysis)” value ([2]; first 6h table (N as WT), distance from soma 35 µm) was 5.211, the “6h: Mean (Sholl analysis)” value ([2]; first 6h table (N as WT), distance from soma 40 µm) was 3.632 and the “6h: Mean (Sholl analysis)” value ([2]; first 6h table (N as WT), distance from soma 45 µm) was 3.474. For the same compound, the “6h: Mean (Sholl analysis)” value ([2]; first 6h table (N as WT), distance from soma 50 µm) was 3, the “6h: Mean (Sholl analysis)” value ([2]; first 6h table (N as WT), distance from soma 55 µm) was 2.684 and the “6h: Mean (Sholl analysis)” value ([2]; first 6h table (N as WT), distance from soma 60 µm) was 3.105. For the same compound, the “6h: Mean (Sholl analysis)” value ([2]; first 6h table (N as WT), distance from soma 65 µm) was 2.579, the “6h: Mean (Sholl analysis)” value ([2]; first 6h table (N as WT), distance from soma 70 µm) was 2.421 and the “6h: Mean (Sholl analysis)” value ([2]; first 6h table (N as WT), distance from soma 75 µm) was 2.263. For the same compound, the “6h: Mean (Sholl analysis)” value ([2]; first 6h table (N as WT), distance from soma 80 µm) was 2.421, the “6h: Mean (Sholl analysis)” value ([2]; first 6h table (N as WT), distance from soma 85 µm) was 2 and the “6h: Mean (Sholl analysis)” value ([2]; first 6h table (N as WT), distance from soma 90 µm) was 2.421. The “6h: Mean (Sholl analysis)” value ([2]; first 6h table (N as WT), distance from soma 95 µm) was 1.632, the “6h: Mean (Sholl analysis)” value ([2]; first 6h table (N as WT), distance from soma 100 µm) was 1.789 and the “6h: Mean (Sholl analysis)” value ([2]; second 6h table (N as Y433F), distance from soma 10 µm) was 5.294. The “6h: Mean (Sholl analysis)” value ([2]; second 6h table (N as Y433F), distance from soma 15 µm) was 4.941, the “6h: Mean (Sholl analysis)” value ([2]; second 6h table (N as Y433F), distance from soma 20 µm) was 4.765 and the “6e: Mean Diff. (Vehicle:Vehicle vs. treatment), Bonferroni's multiple comparisons test” value ([3]; LSD together with M100907) was -7.65. The “6e: Mean (spinogenesis, spine density)” value ([3]; LSD together with M100907) was 14.7, the “6e: Mean Diff. (Vehicle:Vehicle vs. treatment), Bonferroni's multiple comparisons test” value ([3]; LSD together with TrkB.FC) was 0.25 and the “6e: Mean (spinogenesis, spine density)” value ([3]; LSD together with TrkB.FC) was 6.8. For the same compound, the “6d: Mean (spinogenesis, spine density)” value ([3]; WT neurons, vehicle mean 5.7) was 13, the “6d: Mean Diff. (vehicle vs. treatment), Bonferroni's multiple comparisons test” value ([3]; WT:vehicle minus WT:treatment) was -7.3 and the “6d: Mean (spinogenesis, spine density)” value ([3]; Y433F+/- neurons, vehicle mean 6.55) was 7.5. The “6d: Mean Diff. (vehicle vs. treatment), Bonferroni's multiple comparisons test” value [3, 4] was -0.95, the spine density ([3]; cultures from WT mice, 24 h, 100 nM) was “increase spine density” and the “6e: Mean Diff. (Vehicle:Vehicle vs. treatment), Bonferroni's multiple comparisons test” value ([3]; substance alone (with vehicle)) was -7.6. The “6e: Mean (spinogenesis, spine density)” value ([3]; substance alone (with vehicle)) was 14.65.

Source: paper PMC10244169, “Psychedelics promote plasticity by directly binding to BDNF receptor TrkB” (Nature Neuroscience, 2023)
